Test results reported in the kinase profiling compilation of Christmann-Franck et al. (2016).

What was measured:
Assay in all cases: radiometric filter-binding kinase assay
EEF2K (human) = EEF2K (human) (UniProt O00418)
[1] = system: SGK1 (human), O00141 [S422D]
PIM2 (human) = PIM2 (human) (UniProt Q9P1W9)
PAK7 (human) = PAK7 (human) (UniProt Q9P286)
MAP2K2 (human) = MAP2K2 (human) (UniProt P36507)
ERBB4 (human) = ERBB4 (human) (UniProt Q15303)
IGF1R (human) = IGF1R (human) (UniProt P08069)
PIM1 (human) = PIM1 (human) (UniProt P11309)
PRKCZ (human) = PRKCZ (human) (UniProt Q05513)
SYK (human) = SYK (human) (UniProt P43405)
PHKG1 (human) = PHKG1 (human) (UniProt Q16816)
MARK1 (human) = MARK1 (human) (UniProt Q9P0L2)
MAPK9 (human) = MAPK9 (human) (UniProt P45984)
MELK (human) = MELK (human) (UniProt Q14680)
CAMKK2 (human) = CAMKK2 (human) (UniProt Q96RR4)
MAPK3 (human) = MAPK3 (human) (UniProt P27361)
PRKACA (human) = PRKACA (human) (UniProt P17612)
PRKAA1 or PRKAA2 (rat) = settings: accession and sequence are those of the human protein
IKBKE (human) = IKBKE (human) (UniProt Q14164)
DYRK1A (human) = DYRK1A (human) (UniProt Q13627)
EPHB4 (human) = EPHB4 (human) (UniProt P54760)
BRSK1 (human) = BRSK1 (human) (UniProt Q8TDC3)
MAP2K6 (human) = MAP2K6 (human) (UniProt P52564)
MAPKAPK5 (human) = MAPKAPK5 (human) (UniProt Q8IW41)
MAP3K5 (human) = MAP3K5 (human) (UniProt Q99683)
BRSK2 (human) = BRSK2 (human) (UniProt Q8IWQ3)
PIM3 (human) = PIM3 (human) (UniProt Q86V86)
MAPK13 (human) = MAPK13 (human) (UniProt O15264)
MAPKAPK2 (human) = MAPKAPK2 (human) (UniProt P49137)
MKNK1 (human) = MKNK1 (human) (UniProt Q9BUB5)
GSK3B (human) = GSK3B (human) (UniProt P49841)
MAPK12 (human) = MAPK12 (human) (UniProt P53778)
FGFR1 (human) = FGFR1 (human) (UniProt P11362)
DAPK1 (human) = DAPK1 (human) (UniProt P53355)
HIPK3 (human) = HIPK3 (human) (UniProt Q9H422)
STK3 (human) = STK3 (human) (UniProt Q13188)

PAK7 (human), sequence (Q9P286 whole entry, looked up): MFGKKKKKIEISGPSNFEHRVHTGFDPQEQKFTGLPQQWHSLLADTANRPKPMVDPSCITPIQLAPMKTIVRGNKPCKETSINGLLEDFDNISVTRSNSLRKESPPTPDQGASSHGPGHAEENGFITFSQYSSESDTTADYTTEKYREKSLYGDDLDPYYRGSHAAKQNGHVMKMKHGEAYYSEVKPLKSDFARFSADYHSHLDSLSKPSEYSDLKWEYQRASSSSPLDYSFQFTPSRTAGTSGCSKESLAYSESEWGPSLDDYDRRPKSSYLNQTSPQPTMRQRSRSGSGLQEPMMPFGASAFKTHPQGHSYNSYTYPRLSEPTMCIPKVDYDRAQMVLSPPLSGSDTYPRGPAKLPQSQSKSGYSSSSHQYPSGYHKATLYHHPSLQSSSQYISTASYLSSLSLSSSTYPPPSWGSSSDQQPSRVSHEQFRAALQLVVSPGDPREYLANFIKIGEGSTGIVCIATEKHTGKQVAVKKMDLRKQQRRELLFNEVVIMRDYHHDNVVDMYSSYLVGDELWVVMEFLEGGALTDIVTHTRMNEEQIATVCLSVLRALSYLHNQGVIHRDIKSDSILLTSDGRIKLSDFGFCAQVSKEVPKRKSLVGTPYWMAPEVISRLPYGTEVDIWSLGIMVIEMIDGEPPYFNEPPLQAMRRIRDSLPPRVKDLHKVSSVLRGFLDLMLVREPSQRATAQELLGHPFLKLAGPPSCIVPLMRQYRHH
BRSK2 (human), sequence (Q8IWQ3 whole entry, looked up): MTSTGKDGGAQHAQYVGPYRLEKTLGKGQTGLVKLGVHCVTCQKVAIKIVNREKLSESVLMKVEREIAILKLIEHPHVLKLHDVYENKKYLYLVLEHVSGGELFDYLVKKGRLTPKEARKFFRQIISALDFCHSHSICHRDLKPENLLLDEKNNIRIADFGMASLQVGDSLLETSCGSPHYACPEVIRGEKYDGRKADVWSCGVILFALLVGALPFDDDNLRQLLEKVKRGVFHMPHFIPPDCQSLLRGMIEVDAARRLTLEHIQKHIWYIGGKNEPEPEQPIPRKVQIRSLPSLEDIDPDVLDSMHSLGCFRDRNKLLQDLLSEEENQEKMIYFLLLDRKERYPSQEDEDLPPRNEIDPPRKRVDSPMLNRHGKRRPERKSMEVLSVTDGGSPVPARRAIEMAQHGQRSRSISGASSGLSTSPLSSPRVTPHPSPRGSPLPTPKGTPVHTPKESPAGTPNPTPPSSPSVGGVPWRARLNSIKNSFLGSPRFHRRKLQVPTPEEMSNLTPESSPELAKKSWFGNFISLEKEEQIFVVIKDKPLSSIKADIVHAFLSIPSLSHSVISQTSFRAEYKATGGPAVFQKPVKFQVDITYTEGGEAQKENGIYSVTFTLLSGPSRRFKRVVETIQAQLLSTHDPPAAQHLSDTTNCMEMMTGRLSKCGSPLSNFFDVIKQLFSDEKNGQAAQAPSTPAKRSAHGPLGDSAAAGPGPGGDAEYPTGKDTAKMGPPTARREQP
PIM2 (human), sequence (Q9P1W9 whole entry, looked up): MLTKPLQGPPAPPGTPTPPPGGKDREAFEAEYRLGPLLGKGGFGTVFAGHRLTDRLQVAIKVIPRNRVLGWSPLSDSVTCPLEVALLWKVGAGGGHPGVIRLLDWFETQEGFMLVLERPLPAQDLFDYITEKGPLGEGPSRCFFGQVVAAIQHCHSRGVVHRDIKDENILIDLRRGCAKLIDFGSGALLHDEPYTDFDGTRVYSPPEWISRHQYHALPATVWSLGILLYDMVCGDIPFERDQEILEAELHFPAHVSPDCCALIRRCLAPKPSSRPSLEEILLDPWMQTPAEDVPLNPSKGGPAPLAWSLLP
PRKCZ (human), sequence (Q05513 whole entry, looked up): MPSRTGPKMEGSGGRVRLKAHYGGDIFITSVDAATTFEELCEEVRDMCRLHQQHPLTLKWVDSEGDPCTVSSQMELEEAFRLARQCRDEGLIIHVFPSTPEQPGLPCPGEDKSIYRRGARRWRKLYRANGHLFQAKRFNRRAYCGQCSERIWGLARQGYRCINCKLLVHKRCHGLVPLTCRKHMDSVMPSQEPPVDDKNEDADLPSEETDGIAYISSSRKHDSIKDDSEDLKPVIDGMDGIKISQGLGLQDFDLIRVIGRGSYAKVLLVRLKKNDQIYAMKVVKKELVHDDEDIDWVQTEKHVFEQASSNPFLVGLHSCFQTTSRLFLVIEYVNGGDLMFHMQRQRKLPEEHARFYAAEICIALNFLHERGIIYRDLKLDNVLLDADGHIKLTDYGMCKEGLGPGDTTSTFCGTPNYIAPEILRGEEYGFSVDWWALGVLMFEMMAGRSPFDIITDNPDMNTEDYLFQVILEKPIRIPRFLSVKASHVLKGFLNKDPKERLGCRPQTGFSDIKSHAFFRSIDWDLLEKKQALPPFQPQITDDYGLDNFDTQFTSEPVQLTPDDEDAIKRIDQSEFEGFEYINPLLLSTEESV
MELK (human), sequence (Q14680 whole entry, looked up): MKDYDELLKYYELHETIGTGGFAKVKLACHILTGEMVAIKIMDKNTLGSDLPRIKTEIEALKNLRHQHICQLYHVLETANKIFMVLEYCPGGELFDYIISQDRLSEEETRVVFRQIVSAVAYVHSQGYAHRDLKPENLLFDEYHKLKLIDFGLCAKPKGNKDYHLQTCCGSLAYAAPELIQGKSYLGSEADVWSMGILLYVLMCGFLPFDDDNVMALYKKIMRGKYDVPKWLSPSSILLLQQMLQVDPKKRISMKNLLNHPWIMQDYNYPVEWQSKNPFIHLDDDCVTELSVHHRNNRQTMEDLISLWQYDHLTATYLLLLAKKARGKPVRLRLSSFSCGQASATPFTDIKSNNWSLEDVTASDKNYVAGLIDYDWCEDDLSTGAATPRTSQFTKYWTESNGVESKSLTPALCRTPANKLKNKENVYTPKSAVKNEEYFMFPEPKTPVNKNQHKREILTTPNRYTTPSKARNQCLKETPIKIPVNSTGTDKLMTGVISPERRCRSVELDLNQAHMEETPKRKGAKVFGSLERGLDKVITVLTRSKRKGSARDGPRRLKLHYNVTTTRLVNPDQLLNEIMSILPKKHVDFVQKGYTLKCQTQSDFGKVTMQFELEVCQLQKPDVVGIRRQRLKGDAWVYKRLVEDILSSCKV
PHKG1 (human), sequence (Q16816 whole entry, looked up): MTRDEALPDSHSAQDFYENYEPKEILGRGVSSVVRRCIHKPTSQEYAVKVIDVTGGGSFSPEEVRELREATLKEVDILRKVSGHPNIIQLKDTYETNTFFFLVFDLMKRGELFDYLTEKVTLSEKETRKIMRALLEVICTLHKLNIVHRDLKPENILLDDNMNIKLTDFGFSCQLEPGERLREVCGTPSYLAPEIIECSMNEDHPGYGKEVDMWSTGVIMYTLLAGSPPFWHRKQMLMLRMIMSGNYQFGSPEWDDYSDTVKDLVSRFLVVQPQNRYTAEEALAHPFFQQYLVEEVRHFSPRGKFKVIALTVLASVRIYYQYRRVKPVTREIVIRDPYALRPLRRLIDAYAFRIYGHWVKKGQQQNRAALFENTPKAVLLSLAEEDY
MAPK13 (human), sequence (O15264 whole entry, looked up): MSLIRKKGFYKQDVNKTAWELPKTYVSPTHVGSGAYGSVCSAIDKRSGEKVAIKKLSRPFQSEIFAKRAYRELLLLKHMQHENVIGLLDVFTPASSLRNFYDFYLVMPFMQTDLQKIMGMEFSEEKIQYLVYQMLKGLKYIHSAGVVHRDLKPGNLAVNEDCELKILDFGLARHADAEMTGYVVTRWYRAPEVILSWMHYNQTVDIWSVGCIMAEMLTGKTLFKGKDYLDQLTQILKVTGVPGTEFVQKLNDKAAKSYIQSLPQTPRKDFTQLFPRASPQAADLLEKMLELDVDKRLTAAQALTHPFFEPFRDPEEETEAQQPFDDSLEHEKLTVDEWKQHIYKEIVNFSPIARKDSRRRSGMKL
MAPKAPK2 (human), sequence (P49137 whole entry, looked up): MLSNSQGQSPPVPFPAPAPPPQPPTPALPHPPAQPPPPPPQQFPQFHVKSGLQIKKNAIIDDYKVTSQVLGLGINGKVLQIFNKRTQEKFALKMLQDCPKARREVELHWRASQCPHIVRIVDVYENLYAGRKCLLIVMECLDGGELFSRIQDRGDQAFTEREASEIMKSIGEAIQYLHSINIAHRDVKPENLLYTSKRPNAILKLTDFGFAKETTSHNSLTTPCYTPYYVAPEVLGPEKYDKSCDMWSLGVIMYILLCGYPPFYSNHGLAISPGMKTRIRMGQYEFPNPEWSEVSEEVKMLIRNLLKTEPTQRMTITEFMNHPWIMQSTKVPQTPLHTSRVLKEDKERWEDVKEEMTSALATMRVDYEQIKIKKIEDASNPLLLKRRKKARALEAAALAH
MAPK9 (human), sequence (P45984 whole entry, looked up): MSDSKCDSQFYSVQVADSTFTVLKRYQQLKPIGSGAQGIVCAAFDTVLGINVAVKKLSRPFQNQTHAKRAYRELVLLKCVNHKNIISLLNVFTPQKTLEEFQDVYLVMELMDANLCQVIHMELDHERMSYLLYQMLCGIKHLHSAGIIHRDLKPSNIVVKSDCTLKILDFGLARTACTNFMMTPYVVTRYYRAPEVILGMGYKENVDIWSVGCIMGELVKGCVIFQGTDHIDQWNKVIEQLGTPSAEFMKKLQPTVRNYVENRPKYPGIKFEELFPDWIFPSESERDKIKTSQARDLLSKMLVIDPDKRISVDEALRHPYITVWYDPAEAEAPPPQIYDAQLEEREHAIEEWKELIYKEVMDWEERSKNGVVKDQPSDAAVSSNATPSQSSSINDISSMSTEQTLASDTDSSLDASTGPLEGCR

- residual activity (EEF2K (human); compound 0.01 µM): 108%
- residual activity (EEF2K (human); compound 0.1 µM): 100%
- residual activity (EEF2K (human); compound 1.0 µM): 105%
- residual activity (EEF2K (human); compound 10.0 µM): 100%
- residual activity ([1]; compound 0.01 µM): 96%
- residual activity ([1]; compound 0.1 µM): 96%
- residual activity ([1]; compound 1.0 µM): 81%
- residual activity ([1]; compound 10.0 µM): 37%
- residual activity (PIM2 (human); compound 0.01 µM): 97%
- residual activity (PIM2 (human); compound 1.0 µM): 97%
- residual activity (PIM2 (human); compound 10.0 µM): 110%
- residual activity (PAK7 (human); compound 0.01 µM): 97%
- residual activity (PAK7 (human); compound 0.1 µM): 101%
- residual activity (PAK7 (human); compound 1.0 µM): 97%
- residual activity (PAK7 (human); compound 10.0 µM): 99%
- residual activity (MAP2K2 (human); compound 1.0 µM): 114%
- residual activity (MAP2K2 (human); compound 10.0 µM): 94%
- residual activity (ERBB4 (human); compound 0.01 µM): 106%
- residual activity (ERBB4 (human); compound 0.1 µM): 107%
- residual activity (ERBB4 (human); compound 1.0 µM): 106%
- residual activity (ERBB4 (human); compound 10.0 µM): 101%
- residual activity (IGF1R (human); compound 0.1 µM): 115%
- residual activity (IGF1R (human); compound 1.0 µM): 98%
- residual activity (IGF1R (human); compound 10.0 µM): 100%
- residual activity (PIM1 (human); compound 0.01 µM): 99%
- residual activity (PIM1 (human); compound 0.1 µM): 100%
- residual activity (PIM1 (human); compound 1.0 µM): 112%
- residual activity (PIM1 (human); compound 10.0 µM): 93%
- residual activity (PRKCZ (human); compound 0.01 µM): 113%
- residual activity (PRKCZ (human); compound 0.1 µM): 105%
- residual activity (PRKCZ (human); compound 1.0 µM): 74%
- residual activity (PRKCZ (human); compound 10.0 µM): 23%
- residual activity (SYK (human); compound 0.01 µM): 109%
- residual activity (SYK (human); compound 0.1 µM): 105%
- residual activity (SYK (human); compound 1.0 µM): 104%
- residual activity (SYK (human); compound 10.0 µM): 105%
- residual activity (PHKG1 (human); compound 0.01 µM): 106%
- residual activity (PHKG1 (human); compound 0.1 µM): 108%
- residual activity (PHKG1 (human); compound 1.0 µM): 101%
- residual activity (PHKG1 (human); compound 10.0 µM): 78%
- residual activity (MARK1 (human); compound 1.0 µM): 99%
- residual activity (MARK1 (human); compound 10.0 µM): 84%
- residual activity (MAPK9 (human); compound 0.01 µM): 117%
- residual activity (MAPK9 (human); compound 0.1 µM): 126%
- residual activity (MAPK9 (human); compound 1.0 µM): 104%
- residual activity (MAPK9 (human); compound 10.0 µM): 114%
- residual activity (MELK (human); compound 0.01 µM): 115%
- residual activity (MELK (human); compound 0.1 µM): 77%
- residual activity (MELK (human); compound 1.0 µM): 31%
- residual activity (MELK (human); compound 10.0 µM): 22%
- residual activity (CAMKK2 (human); compound 0.01 µM): 112%
- residual activity (CAMKK2 (human); compound 0.1 µM): 123%
- residual activity (CAMKK2 (human); compound 1.0 µM): 99%
- residual activity (CAMKK2 (human); compound 10.0 µM): 91%
- residual activity (MAPK3 (human); compound 0.01 µM): 93%
- residual activity (MAPK3 (human); compound 0.1 µM): 106%
- residual activity (MAPK3 (human); compound 1.0 µM): 103%
- residual activity (MAPK3 (human); compound 10.0 µM): 108%
- residual activity (PRKACA (human); compound 0.01 µM): 103%
- residual activity (PRKACA (human); compound 0.1 µM): 111%
- residual activity (PRKACA (human); compound 1.0 µM): 102%
- residual activity (PRKACA (human); compound 10.0 µM): 84%
- residual activity (PRKAA1 or PRKAA2 (rat); compound 0.01 µM): 107%
- residual activity (PRKAA1 or PRKAA2 (rat); compound 0.1 µM): 111%
- residual activity (PRKAA1 or PRKAA2 (rat); compound 1.0 µM): 91%
- residual activity (PRKAA1 or PRKAA2 (rat); compound 10.0 µM): 44%
- residual activity (IKBKE (human); compound 0.01 µM): 114%
- residual activity (IKBKE (human); compound 0.1 µM): 97%
- residual activity (IKBKE (human); compound 1.0 µM): 91%
- residual activity (IKBKE (human); compound 10.0 µM): 45%
- residual activity (DYRK1A (human); compound 0.01 µM): 102%
- residual activity (DYRK1A (human); compound 0.1 µM): 107%
- residual activity (DYRK1A (human); compound 1.0 µM): 92%
- residual activity (DYRK1A (human); compound 10.0 µM): 82%
- residual activity (EPHB4 (human); compound 1.0 µM): 119%
- residual activity (EPHB4 (human); compound 10.0 µM): 117%
- residual activity (BRSK1 (human); compound 0.01 µM): 110%
- residual activity (BRSK1 (human); compound 0.1 µM): 95%
- residual activity (BRSK1 (human); compound 1.0 µM): 53%
- residual activity (BRSK1 (human); compound 10.0 µM): 11%
- residual activity (MAP2K6 (human); compound 1.0 µM): 87%
- residual activity (MAP2K6 (human); compound 10.0 µM): 94%
- residual activity (MAPKAPK5 (human); compound 0.01 µM): 81%
- residual activity (MAPKAPK5 (human); compound 0.1 µM): 92%
- residual activity (MAPKAPK5 (human); compound 1.0 µM): 110%
- residual activity (MAPKAPK5 (human); compound 10.0 µM): 95%
- residual activity (MAP3K5 (human); compound 1.0 µM): 106%
- residual activity (MAP3K5 (human); compound 10.0 µM): 99%
- residual activity (BRSK2 (human); compound 0.01 µM): 114%
- residual activity (BRSK2 (human); compound 0.1 µM): 110%
- residual activity (BRSK2 (human); compound 10.0 µM): 15%
- residual activity (PIM3 (human); compound 0.01 µM): 105%
- residual activity (PIM3 (human); compound 0.1 µM): 112%
- residual activity (PIM3 (human); compound 1.0 µM): 94%
- residual activity (PIM3 (human); compound 10.0 µM): 73%
- residual activity (MAPK13 (human); compound 0.01 µM): 106%
- residual activity (MAPK13 (human); compound 0.1 µM): 113%
- residual activity (MAPK13 (human); compound 1.0 µM): 93%
- residual activity (MAPK13 (human); compound 10.0 µM): 101%
- residual activity (MAPKAPK2 (human); compound 0.01 µM): 104%
- residual activity (MAPKAPK2 (human); compound 0.1 µM): 111%
- residual activity (MAPKAPK2 (human); compound 1.0 µM): 86%
- residual activity (MAPKAPK2 (human); compound 10.0 µM): 84%
- residual activity (MKNK1 (human); compound 0.01 µM): 106%
- residual activity (MKNK1 (human); compound 0.1 µM): 108%
- residual activity (MKNK1 (human); compound 1.0 µM): 111%
- residual activity (MKNK1 (human); compound 10.0 µM): 92%
- residual activity (GSK3B (human); compound 0.01 µM): 108%
- residual activity (GSK3B (human); compound 0.1 µM): 111%
- residual activity (GSK3B (human); compound 1.0 µM): 106%
- residual activity (MAPK12 (human); compound 0.01 µM): 109%
- residual activity (MAPK12 (human); compound 0.1 µM): 110%
- residual activity (MAPK12 (human); compound 1.0 µM): 99%
- residual activity (MAPK12 (human); compound 10.0 µM): 110%
- residual activity (FGFR1 (human); compound 0.01 µM): 119%
- residual activity (FGFR1 (human); compound 0.1 µM): 119%
- residual activity (FGFR1 (human); compound 1.0 µM): 105%
- residual activity (FGFR1 (human); compound 10.0 µM): 88%
- residual activity (DAPK1 (human); compound 1.0 µM): 35%
- residual activity (DAPK1 (human); compound 10.0 µM): 12%
- residual activity (HIPK3 (human); compound 0.01 µM): 111%
- residual activity (HIPK3 (human); compound 0.1 µM): 105%
- residual activity (HIPK3 (human); compound 1.0 µM): 99%
- residual activity (HIPK3 (human); compound 10.0 µM): 103%
- residual activity (STK3 (human); compound 0.01 µM): 116%
- residual activity (STK3 (human); compound 0.1 µM): 128%
- residual activity (STK3 (human); compound 1.0 µM): 91%
- residual activity (STK3 (human); compound 10.0 µM): 84%
Structure (SMILES): CNc1nc(-c2ccc3c(N)n[nH]c3c2)cc(N2C[C@@H](C(=O)NC3CCCCC3)CC[C@H]2C)n1
